Read-outs that look alike come from different tables or passages of the source.
Experiments:
[1] = biological target: FGFR1 (Homo sapiens (Human), UniProt P11362); test: Inhibitory activity on kinase FGFR1 (Caliper mobility shift); format: biochemical; settings: read-out: FGFR1 IC50
Experimental: (§1) (1). Preparation of 1×Kinase buffer; (2) Preparation of the gradient concentrations of the compounds: the concentration of the compounds to be tested started from 10 μM, which was 3-fold diluted to prepare 10 dilutions, and then tested in duplicated wells. The compounds were 100-fold serially diluted into 10 dilutions with different final concentrations in 96-well plates, each of which was further diluted with 1×Kinase buffer to prepare an intermediate dilution having a concentration of 5 times the final concentration; (3) adding 5 μL of each of the prepared compound solution into the compound wells of 384-well plates, and each concentration set single well; adding 5 μL of 5% DMSO into negative control wells and positive control wells respectively; (4) preparing a kinase solution having a concentration of 2.5 times the final concentration with 1×kinase buffer; (5) adding 10 μL of kinase solution at a concentration of 2.5 times the final concentration into the compound wells and the positive control wells respectively; and adding 10 μL of 1×Kinase buffer into the negative control wells; (6) centrifuging at 1000 rpm for 30 seconds, and incubating at room temperature for 10 minutes after shaking and mixing evenly; (7) preparing a mixed solution of ATP and Kinase substrate 22 having a concentration of 2.5 times the final concentration with 1×Kinase Buffer; (8) adding 10 μL of the mixed solution of ATP and substrate at a concentration of 2.5 times the final concentration to initiate the reaction; (9) Centrifuging the 384-well plates at 1000 rpm for 30 seconds, and incubating at 28° C. for corresponding time respectively after shaking and mixing; (10) adding 30 μL of stop detection solution to stop the kinase reaction, centrifuging at 1000 rpm for 30 seconds, and shaking and mixing the mixture evenly; (11) reading the conversion rate by Caliper Ezreader II. The dose-effect curve was fitted by the log (inhibitor) vs. response-variable slope of GraphPad Prism 5 with the log value of concentration as the X axis and the percentage inhibition rate as the Y axis, then the IC50 value of each compound on the enzyme activity was obtained.

[2] = biological target: FGFR4 (Homo sapiens (Human), UniProt P22455); test: Inhibitory activity on kinase FGFR4 (Caliper mobility shift); format: biochemical; settings: read-out: FGFR4 IC50
Chain of FGFR4 (P22455 22-802): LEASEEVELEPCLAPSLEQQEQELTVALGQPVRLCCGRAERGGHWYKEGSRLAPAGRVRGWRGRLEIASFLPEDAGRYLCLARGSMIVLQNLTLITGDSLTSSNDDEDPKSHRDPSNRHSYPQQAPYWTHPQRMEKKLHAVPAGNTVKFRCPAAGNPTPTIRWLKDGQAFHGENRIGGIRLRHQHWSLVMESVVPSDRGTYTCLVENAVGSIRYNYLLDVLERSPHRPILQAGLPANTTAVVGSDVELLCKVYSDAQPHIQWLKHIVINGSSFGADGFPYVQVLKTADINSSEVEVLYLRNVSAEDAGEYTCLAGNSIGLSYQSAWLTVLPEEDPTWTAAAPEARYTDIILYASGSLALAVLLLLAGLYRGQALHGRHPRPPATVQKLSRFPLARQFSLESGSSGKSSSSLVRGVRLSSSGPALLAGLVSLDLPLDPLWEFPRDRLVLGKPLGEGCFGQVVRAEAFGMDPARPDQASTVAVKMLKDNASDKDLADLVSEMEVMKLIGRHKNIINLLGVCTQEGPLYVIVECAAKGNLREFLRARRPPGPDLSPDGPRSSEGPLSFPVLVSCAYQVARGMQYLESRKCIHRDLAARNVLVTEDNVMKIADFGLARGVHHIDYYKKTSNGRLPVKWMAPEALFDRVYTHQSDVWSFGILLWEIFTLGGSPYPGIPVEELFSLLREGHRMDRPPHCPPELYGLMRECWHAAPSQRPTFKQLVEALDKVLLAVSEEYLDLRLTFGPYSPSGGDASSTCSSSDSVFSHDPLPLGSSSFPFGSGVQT
Experimental: as §1

[3] = system: Hep3B cells; test: Hep3B cell proliferation (CellTiter-Glo, 72 hours); format: cell-based; settings: read-out: Hep3B IC50
Experimental: 1. Test method: inoculating Hep3B cells (ATCC) in logarithmic growth phase at an appropriate density in a 96-well culture plate, with 100 μL per well. After overnight culture, different concentrations of compounds were added to stay for 72 hours, and menstruum control group (negative control) was set, and the incubation was performed under the condition of 5% CO2 at 37° C. Adding 10 mM compound stock solution to the cells, after the cells were incubated with the compounds for 72 hours, the effects of the compounds on cell proliferation were determined by CellTiter-Glo (Promega) method. 30 μL CTG reagent was added to each well and the resulting mixtures were placed in a 37° C. incubator for 2-4 hours. Then the plate was read by a full-wavelength microplate enzyme reader Envision at a […].
The inhibition rates (%) of the compounds on tumor cell growth were calculated by the following formula: inhibition rate (%)=(OD negative control well−OD administration well)/OD negative control well×100%. IC50 values were obtained by four parameters regression using Graphpad Prism 5 software.

Chain of FGFR1 (P11362 22-822): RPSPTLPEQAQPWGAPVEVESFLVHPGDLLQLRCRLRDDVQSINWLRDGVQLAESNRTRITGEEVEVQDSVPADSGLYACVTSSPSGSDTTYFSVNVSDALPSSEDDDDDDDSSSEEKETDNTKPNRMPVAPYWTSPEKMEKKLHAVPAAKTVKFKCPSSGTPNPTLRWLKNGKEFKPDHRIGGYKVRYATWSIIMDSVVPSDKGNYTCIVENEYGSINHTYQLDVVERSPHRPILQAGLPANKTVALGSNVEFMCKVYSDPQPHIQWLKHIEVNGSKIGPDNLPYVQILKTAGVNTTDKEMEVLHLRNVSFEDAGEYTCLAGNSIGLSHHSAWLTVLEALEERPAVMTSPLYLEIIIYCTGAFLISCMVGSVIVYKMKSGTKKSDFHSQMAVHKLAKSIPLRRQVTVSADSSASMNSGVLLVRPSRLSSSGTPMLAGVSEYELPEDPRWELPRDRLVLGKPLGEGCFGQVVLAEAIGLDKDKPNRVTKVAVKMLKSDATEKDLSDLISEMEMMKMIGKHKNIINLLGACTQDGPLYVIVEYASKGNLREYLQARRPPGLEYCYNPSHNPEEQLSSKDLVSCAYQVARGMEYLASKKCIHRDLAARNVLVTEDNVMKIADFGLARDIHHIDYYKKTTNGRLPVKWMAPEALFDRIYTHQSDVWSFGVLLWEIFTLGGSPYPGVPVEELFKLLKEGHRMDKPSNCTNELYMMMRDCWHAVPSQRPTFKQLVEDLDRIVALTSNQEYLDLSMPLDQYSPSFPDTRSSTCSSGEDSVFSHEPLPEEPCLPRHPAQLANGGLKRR

Row | Compound | IC50 [1] | IC50 [2] | IC50 ([3]; Homo sapiens, Hep3B) | IC50 [3]
1 | C=CC(=O)N1CCN(c2cccc(-c3cn4c(n3)c(-c3c(Cl)c(OC)cc(OC)c3Cl)cc3cnc(NC)nc34)c2)CC1 [Embodiment 18, 1-(4-(3-(6-(2,6-dichloro-3,5-dimethoxyphenyl)-2-(methylamine)imidazo[1′,2′:1,6]pyrido[2,3-d]pyrimidin-8-yl)phenyl)piperazine-1-yl)acrylamide] | < 20 nM | > 200 nM | – | 20 to 200 nM
2 | C=CC(=O)N1CCN(Cc2cn3c(n2)c(-c2c(Cl)c(OC)cc(OC)c2Cl)cc2cnc(NC)nc23)CC1 [Embodiment 16, 1-(4-((6-(2,6-dichloro-3,5-phenyldimethoxyphenyl)-2-(methylamine)imidazo[1′,2′:1,6]pyrido[2,3-d]pyrimidin-8-yl)methyl)piperazine-1-yl)acrylamide] | < 20 nM | > 200 nM | 20 to 200 nM | –
3 | C=CC(=O)N1CCN(CCCc2cn3c(n2)c(-c2c(F)c(OC)cc(OC)c2F)cc2cnc(NC)cc23)CC1 [Embodiment 2] | < 20 nM | < 20 nM | < 20 nM | –
4 | C=CC(=O)N1CCN(CCCc2cn3c(n2)c(-c2c(F)c(OC)cc(OC)c2F)cc2cnc(NC)nc23)CC1 [Embodiment 1] | < 20 nM | < 20 nM | < 20 nM | –
5 | C=CC(=O)N1CCN(CCCc2cn3c(n2)c(-c2c(Cl)c(OC)cc(OC)c2Cl)cc2cnc(NCCN4CCN(C)CC4)nc23)CC1 [Embodiment 7, 1-(4-(3-(6-(2,6-dichloro-3,5-dimethoxyaniline)-2-((2-(4-methylpiperazine-1-yl)ethylethyl)amino)imidazo[1′,2′:1,6]pyrido[2,3-d]pyrimidin-8-yl)propyl)piperazine-1-yl)prop-2-en-1-one] | < 20 nM | < 20 nM | 20 to 200 nM | –
6 | C=CC(=O)N1CCN(CCCc2cn3c(n2)c(-c2c(Cl)c(OC)cc(OC)c2Cl)cc2cnc(NCC)nc23)CC1 [Embodiment 8] | < 20 nM | < 20 nM | < 20 nM | –
7 | C=CC(=O)NCc1cccc(-c2cn3c(n2)c(-c2c(Cl)c(OC)cc(OC)c2Cl)cc2cnc(NC)nc23)c1 [Embodiment 19, N-(3-(6-(2,6-dichloro-3,5-dimethoxyphenyl)-2-(methylamino)imidazo[1′,2′:1,6]pyrido[2,3-d]pyrimidin-8-yl)benzyl)acrylamide] | < 20 nM | > 200 nM | 20 to 200 nM | –
8 | C=CC(=O)N1CCN(CCCc2cn3c(n2)c(-c2c(Cl)c(OC)cc(OC)c2Cl)cc2cnc(NCC(C)(C)O)nc23)CC1 [Embodiment 12] | < 20 nM | < 20 nM | 20 to 200 nM | –
9 | C=CC(=O)N1CCN(CCCc2cn3c(n2)c(-c2c(Cl)c(OC)cc(OC)c2Cl)cc2cnc(NCC(O)CO)nc23)CC1 (stereo not drawn) [Embodiment 10] | < 20 nM | < 20 nM | 20 to 200 nM | –
10 | C=CC(=O)N1CCN(CCCc2cn3c(n2)c(-c2c(Cl)c(OC)cc(OC)c2Cl)cc2cnc(NCC4CCOC4)nc23)CC1 (stereo not drawn) [Embodiment 11] | < 20 nM | < 20 nM | 20 to 200 nM | –
11 | C=CC(=O)N1CCN(CCCc2cn3c(n2)c(-c2c(Cl)c(OC)cc(OC)c2Cl)cc2cnc(NCCOC)nc23)CC1 [Embodiment 6, 1-(4-(3-(6-(2,6-dichloro-3,5-dimethoxyaniline)-2-((2-methoxyethyl)amino)imidazo[1′,2′:1,6]pyrido[2,3-d]pyrimidin-8-yl)propyl)piperazine-1-yl)prop-2-en-1-one] | < 20 nM | < 20 nM | < 20 nM | –

Second part, led by results:

Row | IC50 [1] | IC50 [2] | IC50 ([3]; Homo sapiens, Hep3B) | Compound | IC50 [3]
12 | < 20 nM | 20 to 200 nM | 20 to 200 nM | C=CC(=O)N1CCN(CCCc2cn3c(n2)c(-c2c(Cl)c(OC)cc(OC)c2Cl)cc2cnc(NC)nc23)CC1(C)C [Embodiment 14] | –
13 | < 20 nM | < 20 nM | < 20 nM | C=CC(=O)N1CCN(CCCc2cn3c(n2)c(-c2c(Cl)c(OC)cc(OC)c2Cl)cc2cnc(NCC4CC4)nc23)CC1 [Embodiment 4] | –
14 | < 20 nM | < 20 nM | < 20 nM | C=CC(=O)N1CCN(CCCc2cn3c(n2)c(-c2c(Cl)c(OC)cc(OC)c2Cl)cc2cnc(NC)cc23)CC1 [Embodiment 5] | –
15 | < 20 nM | 20 to 200 nM | 20 to 200 nM | C=CC(=O)N1CCN(CC(C)(C)Cc2cn3c(n2)c(-c2c(Cl)c(OC)cc(OC)c2Cl)cc2cnc(NC)nc23)CC1 [Embodiment 15, 1-(4-(3-(6-(2,6-dichloro-3,5-dimethoxyaniline)-2-(methylamine)imidazo[1′,2′:1,6]pyrido[2,3-d]pyrimidin-8-yl)-2,2-dimethylpropyl)piperazine-1-yl)prop-2-en-1-one] | –
16 | < 20 nM | < 20 nM | 20 to 200 nM | C=CC(=O)N1CCN(CCCc2cn3c(n2)c(-c2c(Cl)c(OC)cc(OC)c2Cl)cc2cnc(NCCC#N)nc23)CC1 [Embodiment 13] | –
17 | < 20 nM | < 20 nM | 20 to 200 nM | C=CC(=O)N1CCN(CCCc2cn3c(n2)c(-c2c(Cl)c(OC)cc(OC)c2Cl)cc2cnc(NCCN(C)C)nc23)CC1 [Embodiment 9] | –

Source: patent US11267815B2, “Class of amino-substituted nitrogen-containing fused ring compounds, preparation method therefor, and use thereof” (SHANGHAI RINGENE BIOPHARMA CO., LTD., priority 2017, dated 2022)
